This passage reports IC50 results from patent US9988430B2, “Stable GLP-1 based GLP-1/glucagon receptor co-agonists” (Novo Nordisk A/S, priority 2014, dated 2018).

*1 amine or outer side, *2 acyl side, *3 side chain or, on linkers, in order; H or OH if unused. Where a SMILES comes first, the peptide text is derived from it. Bridges are numbered along the chain shown (N, C = ends). Roman numbers before positions name the chains, in order. Side-chain parts run from the residue outwards. [ ]: non-standard residue; d: D form. The star is where a group is joined. C20 diacid = O=C(O)CCCCCCCCCCCCCCCCCCC(=O)*; C18 diacid = O=C(O)CCCCCCCCCCCCCCCCC(=O)*; γGlu = O=C(O)[C@H](CCC(=O)[*:2])N[*:1]; Desaminohistidyl = O=C(CCc1c[nH]cn1)*; Ac4c = NC1(C(=O)O)CCC1; AEEA = NCCOCCOCC(=O)O; Aib = CC(C)(N)C(=O)O

For the experiment, the target named is T1, human GLP-1 receptor (Homo sapiens, UniProt P43220).
T1 construct: expressed in transfected cells; host or cells: membranes of BHK cells, parent line BHKTS13, clone FCW467-12A
T1 sequence (P43220 24-463): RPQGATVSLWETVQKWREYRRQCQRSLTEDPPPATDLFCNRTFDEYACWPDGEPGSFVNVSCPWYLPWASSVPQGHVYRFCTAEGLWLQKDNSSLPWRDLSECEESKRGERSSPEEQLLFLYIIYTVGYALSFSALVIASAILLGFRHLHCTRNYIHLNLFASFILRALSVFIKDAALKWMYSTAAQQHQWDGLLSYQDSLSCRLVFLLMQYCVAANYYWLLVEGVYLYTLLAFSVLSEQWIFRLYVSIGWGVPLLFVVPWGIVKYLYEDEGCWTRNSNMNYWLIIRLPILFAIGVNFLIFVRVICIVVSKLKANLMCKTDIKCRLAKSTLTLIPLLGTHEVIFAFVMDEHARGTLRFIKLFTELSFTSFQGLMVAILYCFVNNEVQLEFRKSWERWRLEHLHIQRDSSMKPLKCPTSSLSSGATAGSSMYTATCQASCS
The experiment can be described thus: Assay (II)(a): GLP-1 receptor binding, [125I]GLP-1 displacement, SPA on BHK membranes. To be noted: displacement of [125I]GLP-1, membranes with human GLP-1 receptor; read-out: IC50 GLP-1R. The protocol: Assay (II): GLP-1 and Glucagon Receptor Binding The purpose of this assay is to test the in vitro receptor binding activity of the GLP-1 derivatives of the invention. (a) GLP-1 Receptor Binding The GLP-1 receptor (GLP-1R) binding is a measure of the affinity of a derivative for the human GLP-1 receptor. The GLP-1 receptor binding of each derivatives were determined with competitive binding, displacing [^125I]GLP-1 bound to GLP-1 receptors expressed in cell membranes associated with wheat germ agglutinin (WGA) scintillation proximity assay (SPA) beads. Each derivative was added in a series of concentrations to isolated membranes comprising the human GLP-1 receptor and displacement of the labelled radioligand was monitored. The receptor binding was reported as the concentration at which half of the labelled ligand is displaced from the receptor, the IC^50 value. The following chemicals were used in the assay: MEM w/o phenol red (Gibco 11880-028), Pen/strep (Invitrogen 15140-122), G418 (Invitrogen 10131-027), 1 M Hepes (Gibco 15630), EDTA (Invitrogen 15575-038), PBS (Invitrogen 14190-094), fetal calf serum (Invitrogen 16140-071), EGTA, MgCl2 (Merck 1.05832.1000), Tween 20 (Amresco 0850C335), SPA particles (wheat germ agglutinin (WGA) SPA beads, Perkin Elmer RPNQ0001), [125I]-GLP-1]-(7-36)NH2 (produced in-house), OptiPlate™-96 (Perkin Elmer). Buffer 1 consisted of 20 mM Na-HEPES plus 10 mM EDTA and pH was adjusted to 7.4. Buffer 2 consisted of 20 mM Na-HEPES plus 0.1 mM EDTA and pH was adjusted to 7.4. Assay buffer consisted of 50 mM HEPES supplemented with 5 mM EGTA, 5 mM MgCl2, 0.005% Tween 20 and pH was adjusted to 7.4. A 0.02% albumin stock consisted of HSA dissolved at 0.02% (w/v) in assay buffer. The cells used in this assay (clone FCW467-12A) were BHK cells with BHKTS13 as a parent cell line. The cells express the human GLP-1 receptor. The cells were grown at 5% CO2 in DMEM, 10% fetal calf serum, 1% Pen/Strep (Penicillin/Streptomycin) and 1.0 mg/ml of the selection marker G418. To make a membrane preparation the cells were grown to approximately 80% confluence. The cells were washed twice in phosphate-buffered saline and harvested. The cells were pelleted using a brief centrifugation and the cell pellet was kept on ice. The cell pellet was homogenised with ULTRA-THURRAX dispersing instrument for 20-30 seconds in a suitable amount of buffer 1 (e.g., 10 ml). The homogenate was centrifuged for 15 minutes. The pellet was re-suspended (homogenised) in 10 ml buffer 2 and centrifuged. This step was repeated once more. The resulting pellet was re-suspended in buffer 2 and the protein concentration was determined. The membranes were aliquoted and stored at minus 80° C. • 1. For the receptor binding assay 50 μl of the assay buffer was added to each well of an assay plate. • 2. Test compounds were serially diluted to give the following concentrations: 8×10EE-7 M, 8×10EE-8 M, 8×10EE-9 M, 8×10EE-10 M, 8×10EE-11 M, 8×10EE-12 M and 8×10EE-13 M. Twenty-five μl were added to appropriate wells in the assay plate. • 3. Cell membrane aliquots were thawed and diluted to their working concentration. Fifty μl were added to each well in the assay plate. • 4. WGA SPA beads were suspended in assay buffer at 20 mg/ml. The suspension was diluted to 10 mg/ml in assay buffer just prior to addition to the assay plate. Fifty μl were added to each well in the assay plate. • 5. The incubation was started by adding 25 μl of 480 pM solution of [125I]-GLP-1]-(7-36)NH2 to each well of the assay plate. A 25 μl aliquot was reserved for measuring total counts/well. • 6. The assay plate was incubated for 2 h at 30° C. • 7. The assay plate was centrifuged for 10 min. • 8. The assay plate was read in a Perkin Elmer TopCount NXT instrument. Calculations The data from the TopCount instrument were transferred to GraphPad Prism software. The software averaged the values for the replicates and performed a non-linear regression. IC50 values were calculated by the software and reported in nM. […]
Background: Displacement assays read how much labelled ligand stays bound in the presence of the test substance.
With `CC[C@H](C)[C@H](NC(=O)[C@H](Cc1ccccc1)NC(=O)[C@H](CCC(=O)O)NC(=O)[C@H](CCCNC(=N)N)NC(=O)[C@H](C)NC(=O)[C@H](C)NC(=O)[C@H](CCC(N)=O)NC(=O)[C@H](CCC(=O)O)NC(=O)[C@H](CCC(=O)O)NC(=O)[C@H](CC(C)C)NC(=O)[C@H](Cc1ccc(O)cc1)NC(=O)[C@H](CCCCN)NC(=O)[C@H](CO)NC(=O)[C@H](Cc1ccc(O)cc1)NC(=O)[C@H](CC(=O)O)NC(=O)[C@H](CO)NC(=O)[C@@H](NC(=O)[C@H](Cc1ccccc1)NC(=O)[C@@H](NC(=O)CNC(=O)[C@H](Cc1c[nH]cn1)NC(=O)C(C)(C)NC(=O)CCc1c[nH]cn1)[C@@H](C)O)[C@@H](C)O)C(=O)N[C@@H](C)C(=O)N[C@@H](Cc1c[nH]c2ccccc12)C(=O)N[C@@H](CC(C)C)C(=O)N[C@@H](CC(C)C)C(=O)N[C@@H](CCCCN)C(=O)NCC(=O)N[C@@H](CCCCNC(=O)CNC(=O)[C@H](CO)NC(=O)[C@H](CCC(=O)O)NC(=O)CNC(=O)[C@H](CO)NC(=O)CC[C@H](NC(=O)CC[C@H](NC(=O)CCCCCCCCCCCCCCCCC(=O)O)C(=O)O)C(=O)O)C(=O)NCC(=O)O` [Example 14, N^ε36-[2-[[(2S)-2-[[(2S)-4-carboxy-2-[[2-[[(2S)-2-[[(4S)-4-carboxy-4-[[(4S)-4-carboxy-4-(17-carboxyheptadecanoylamino)butanoyl]amino]butanoyl]amino]-3-hydroxypropanoyl]amino]acetyl]amino]butanoyl]amino]-3-hydroxypropanoyl]amino]acetyl]-[Imp7,Aib8,His9,Tyr16,Lys18,Glu22,Arg26,Leu33,Lys36]-GLP-1-(7-37)-peptide] (I: Desaminohistidyl-[Aib]HGTFTSDYSKYLEEQAAREFIAWLLKGKG-OH / II: {C18 diacid-γGlu-γGlu}-SGESG; amide I:29-II:C), the IC50 turned out to be 3.2 nM.

For the molecule `CC[C@H](C)[C@H](NC(=O)[C@H](Cc1ccccc1)NC(=O)[C@H](CCC(=O)O)NC(=O)[C@H](CCCNC(=N)N)NC(=O)[C@H](C)NC(=O)[C@H](C)NC(=O)[C@H](CCC(N)=O)NC(=O)[C@H](CCC(=O)O)NC(=O)[C@H](CCC(=O)O)NC(=O)[C@H](CC(C)C)NC(=O)[C@H](Cc1ccc(O)cc1)NC(=O)[C@H](CCCCN)NC(=O)[C@H](CO)NC(=O)[C@@H](NC(=O)[C@H](CC(=O)O)NC(=O)[C@H](CO)NC(=O)[C@@H](NC(=O)[C@H](Cc1ccccc1)NC(=O)[C@@H](NC(=O)CNC(=O)[C@H](Cc1c[nH]cn1)NC(=O)C(C)(C)NC(=O)CCc1c[nH]cn1)[C@@H](C)O)[C@@H](C)O)C(C)C)C(=O)N[C@@H](C)C(=O)N[C@@H](Cc1c[nH]c2ccccc12)C(=O)N[C@@H](CC(C)C)C(=O)N[C@@H](CC(C)C)C(=O)N[C@@H](CCCCNC(=O)COCCOCCNC(=O)COCCOCCNC(=O)CC[C@H](NC(=O)CC[C@H](NC(=O)CCCCCCCCCCCCCCCCCCC(=O)O)C(=O)O)C(=O)O)C(=O)N[C@H](C(N)=O)[C@@H](C)O` [Example 40, N^ε34-[2-[2-[2-[[2-[2-[2-[[(4S)-4-carboxy-4-[[(4S)-4-carboxy-4-(19-carboxynonadecanoylamino)butanoyl]amino]butanoyl]amino]ethoxy]ethoxy]acetyl]amino]ethoxy]ethoxy]acetyl]-[Imp7,Aib8,His9,Lys18,Glu22,Arg26,Leu33,Thr35]-GLP-1-(7-35)-peptide amide] (Desaminohistidyl-[Aib]HGTFTSDVSKYLEEQAAREFIAWLLK([AEEA-AEEA-γGlu-γGlu-C20 diacid])T-NH2), the IC50 was 0.4 nM. With `CC[C@H](C)[C@H](NC(=O)[C@H](Cc1ccccc1)NC(=O)[C@H](CCC(=O)O)NC(=O)[C@H](CCCNC(=N)N)NC(=O)[C@H](C)NC(=O)[C@H](C)NC(=O)[C@H](CCCNC(=N)N)NC(=O)[C@H](CCCCNC(=O)CC[C@H](NC(=O)CC[C@H](NC(=O)COCCOCCNC(=O)COCCOCCNC(=O)CC[C@H](NC(=O)CCCCCCCCCCCCCCCCC(=O)O)C(=O)O)C(=O)O)C(=O)O)NC(=O)[C@H](CCC(=O)O)NC(=O)[C@H](CC(C)C)NC(=O)[C@H](Cc1ccc(O)cc1)NC(=O)[C@H](CCCCN)NC(=O)[C@H](CO)NC(=O)[C@@H](NC(=O)[C@H](CC(=O)O)NC(=O)[C@H](CO)NC(=O)[C@@H](NC(=O)[C@H](Cc1ccccc1)NC(=O)[C@@H](NC(=O)CNC(=O)[C@H](Cc1c[nH]cn1)NC(=O)C1(NC(=O)CCc2c[nH]cn2)CCC1)[C@@H](C)O)[C@@H](C)O)C(C)C)C(=O)N[C@@H](C)C(=O)N[C@@H](Cc1c[nH]c2ccccc12)C(=O)N[C@@H](CC(C)C)C(=O)N[C@@H](CC(C)C)C(=O)N[C@@H](CCCCN)C(=O)N[C@H](C(N)=O)[C@@H](C)O` [Example 32, N^ε22-[(4S)-4-carboxy-4-[[(4S)-4-carboxy-4-[[2-[2-[2-[[2-[2-[2-[[(4S)-4-carboxy-4-(17-carboxyheptadecanoylamino)butanoyl]amino]ethoxy]ethoxy]acetyl]amino]ethoxy]ethoxy]acetyl]amino]butanoyl]amino]butanoyl]-[Imp7,Acb8,His9,Lys18,Lys22,Arg23,Arg26,Leu33,Thr35]-GLP-1-(7-35)-peptide amide] (Desaminohistidyl-[Ac4c]HGTFTSDVSKYLEK([γGlu-γGlu-AEEA-AEEA-γGlu-C18 diacid])RAAREFIAWLLKT-NH2) the figure was 0.2 nM. Then `CC[C@H](C)[C@H](NC(=O)[C@H](Cc1ccccc1)NC(=O)[C@H](CCC(=O)O)NC(=O)[C@H](CCCNC(=N)N)NC(=O)[C@H](C)NC(=O)[C@H](C)NC(=O)[C@H](CCC(N)=O)NC(=O)[C@H](CCC(=O)O)NC(=O)[C@H](CCC(=O)O)NC(=O)[C@H](CC(C)C)NC(=O)[C@H](Cc1ccc(O)cc1)NC(=O)[C@H](CCCCN)NC(=O)[C@H](CO)NC(=O)[C@@H](NC(=O)[C@H](CC(=O)O)NC(=O)[C@H](CO)NC(=O)[C@@H](NC(=O)[C@H](Cc1ccccc1)NC(=O)[C@@H](NC(=O)CNC(=O)[C@H](Cc1c[nH]cn1)NC(=O)C(C)(C)NC(=O)CCc1c[nH]cn1)[C@@H](C)O)[C@@H](C)O)C(C)C)C(=O)N[C@@H](C)C(=O)N[C@@H](Cc1c[nH]c2ccccc12)C(=O)N[C@@H](CC(C)C)C(=O)N[C@@H](CC(C)C)C(=O)N[C@@H](CCCCNC(=O)CC[C@H](NC(=O)CC[C@H](NC(=O)[C@H](CO)NC(=O)CNC(=O)[C@H](CCC(=O)O)NC(=O)[C@H](CO)NC(=O)CNC(=O)CCCCCCCCCCCCCCCCC(=O)O)C(=O)O)C(=O)O)C(=O)N[C@H](C(=O)O)[C@@H](C)O` [Example 27, N^ε34-[(4S)-4-carboxy-4-[[(4S)-4-carboxy-4-[[(2S)-2-[[2-[[(2S)-4-carboxy-2-[[(2S)-2-[[2-(17-carboxyheptadecanoylamino)acetyl]amino]-3-hydroxypropanoyl]amino]butanoyl]amino]acetyl]amino]-3-hydroxypropanoyl]amino]butanoyl]amino]butanoyl]-[Imp7,Aib8,His9,Lys18,Glu22,Arg26,Leu33,Thr35]-GLP-1-(7-35)-peptide] (I: Desaminohistidyl-[Aib]HGTFTSDVSKYLEEQAAREFIAWLLKT-OH / II: {C18 diacid}-GSEGS[γGlu][γGlu]; amide I:27-II:C), with 2.3 nM.

Usually IC50 stands for the point on the concentration scale where inhibition reaches its midpoint.
